Columns and labels:
[1] = Affinity to Cl- in chloroform by extraction of Et4N+Cl- from water; format: binding; conditions: extraction of Et4N^+Cl^– from water into chloroform at 303 K; new compound or new data
Experimental: Measurement of affinities to Et4N+Cl- in chloroform through extraction from […]
This method is adapted from Clare et al..4 The Et4N+Cl- salt was obtained from Sigma Aldrich and dried under vacuum overnight prior to solution preparation using deionised water that had been passed through a Millipore filtration system. All host solutions were prepared using chloroform that had been deacidified by passage through a flash chromatography column containing basic alumina.
A solution of host in deacidified chloroform was combined with 10 mL of aqueous Et4N+Cl-guest solution in a sample tube (30 mL). Concentrations and volumes are specified in Table
S1. A magnetic stirring bar (2 cm) was added to the tube and the lower half was immersed in a water bath heated to 303 K, while the contents were stirred vigorously to achieve good mixing of the two phases. After 30 minutes, stirring was stopped and the two phases were allowed to separate. The majority of the aqueous phase was then removed using a pipette and the remaining organic phase was centrifuged for 10 minutes at 4000 rpm. The chloroform solution was then filtered through Whatman 1PS hydrophobic filter paper to remove any remaining aqueous phase. Solvent from the filtrate was then removed in vacuo and the solid was further dried under vacuum. The resulting solids from the extraction experiments were dissolved in acetone-d6 and the solutions were analysed with 1H NMR spectroscopy.
A value for the molar ratio (R) was determined by integrating the signal at δ = 3.5 ppm (CH2 of Et4N+Cl-) against one of the receptor signals.
The values for R obtained from the 1H NMR spectra were used to calculate values for the equilibrium extraction constants Ke:
Horg + Xaq− + Yaq+ ⇌HX−Yorg+ Ke = org […]
To convert the extraction constants Ke into association constants Ka it is necessary to obtain the distribution constants Kd for the substrates between aqueous and organic phases:
The Kd value for tetraethylammonium chloride partitioning between water and chloroform has been determined and reported previously to be 1.269 × 10-5 M-1.5
The binding constant Ka is then calculated from Ke and Kd:
H + X−Y+ ⇌ HX−Y+ K = org = e […]
When [G] > 100 mM, the amount of salt that migrates from the aqueous phase into the organic phase without assistance of the host has to be taken into account by correcting the measured […]
Table S1. Overview of the conditions and results from the extraction experiments Receptor [H] (mM) [G] (mM) Vorg (mL) Vaq (mL) Rmeasured Ka (M-1)

[2] = Cl-/NO3- exchange in LUVs with preincorporated anionophore (lucigenin method); format: biochemical; conditions: transporter preincorporated in LUVs (70% POPC + 30% cholesterol), 25 mM NaCl gradient, 225 mM NaNO3; new compound or new data
Experimental: The four new anionophores were tested for affinity to Cl^– (in CHCl3 and DMSO, with tetra-alkylammonium counter-ions), and for anion transport (Cl^–/NO3^– exchange) when preloaded into 200 nm large unilamellar vesicles (LUVs). The latter assay was performed using the well-established “lucigenin method”[30] in which Cl^– influx into vesicles is followed through quenching of fluorescence from the halide-sensitive fluorophore lucigenin. The results are listed in Table 1, accompanied by corresponding values for the previously-reported compounds where available. […] In this test, anion transport by anionophores delivered externally to LUVs is compared with their action when preloaded into LUV membranes.[24],[29],[32]
3. Transport studies in vesicles
Transport measurements in vesicles with preincorporated anionophores.
1-Palmitoyl-2-oleoyl-sn-glycero-3-phosphocholine (POPC) was obtained from Avanti® Polar Lipids, Inc. An extrusion apparatus and 200 nm polycarbonate membranes were obtained from GC Technology Ltd. All lipid and receptor solutions were prepared using chloroform that had been deacidified by passage through a flash chromatography column containing basic alumina, and all aqueous solutions were prepared using deionised water that had been passed through a Millipore filtration system.
POPC and cholesterol solutions (~10 mM) in deacidified chloroform were combined with a solution of transporter in methanol or deacidified chloroform in a 5 mL round bottomed flask.
Volumes of the aliquots were calculated from the concentrations of the lipid solution to obtain a POPC to cholesterol ratio of 7:3 (for instance by combining 4.20 µmol POPC and 1.80 µmol cholesterol). The ratio of anionophore to lipid (POPC + cholesterol) was either 1:2500 or 1:25000, as specified in the experiments. The solvents from the lipid/receptor mixture were evaporated under a stream of N2 and the lipid film was dried under high vacuum for 1 h. The residue was hydrated with 500 µL of an aqueous solution of 10,10'-dimethyl-9,9'-biacridinium nitrate (lucigenin, 0.8 mM) and NaNO3 (225 mM), sonicated for 30 s and stirred for 1 h to give heterogeneous vesicles. Multilamellar vesicles were disrupted by 10 freeze-thaw cycles and then the solution was diluted to 1 mL (by adding 0.5 mL of 225 mM NaNO3) and carefully extruded (29 times) through a polycarbonate membrane (200 nm pore size) to give a uniform distribution of LUVs with an average diameter of ~200 nm.2 The external lucigenin was removed by passing the solution though a size exclusion column (containing ~2 g Sephadex 50G, eluted with 225 mM NaNO3). The collected vesicles were further diluted with NaNO3 solution (225 mM) to obtain a vesicle solution with 0.4 mM lipid concentration. 3.00 mL of this vesicle solution was placed in a quartz cuvette with a small stir bar and the fluorescence intensity (excitation at 450 nm, emission at 535 nm) was measured over time at 25 °C, using a PerkinElmer LS45 fluorescence spectrometer. 75 µL of aqueous NaCl (1.0 M in 225 mM NaNO3, to give an overall external chloride concentration of 25 mM) was added ~30 seconds after the start of the experiment and the fluorescence intensity was measured for another 14 […]
Fluorescence data were collected for at least four replicate experiments. The plateau (before addition of chloride) and the vertical drop (the first 1-2.5 seconds after chloride addition, due to quenching of external lucigenin) were removed. Next the data were normalized: all fluorescence values (F) were divided by the fluorescence value before addition of chloride (F0).
Initial rates (I) were obtained from fluorescence -decay curves (0-500 s) by fitting their inverse (F0/F) to a double exponential decay function:
Differentiating this gives F = abe−bt + cde−dt […]
and substituting t = 0 gives the following equation for initial rate: I = ab + cd Specific initial rates [I] were obtained by dividing the initial rates by the anionophore to lipid […]

## FC(F)(F)c1ccc(NC(=S)NCCN(CCNC(=S)Nc2ccc(C(F)(F)F)cc2)CCNC(=S)Nc2ccc(C(F)(F)F)cc2)cc1 [Compound 18]
[1]
  K a to Cl^– in CHCl3: 1.5 × 10^7 ^b M^–1
[2]
  Specific initial rate [I]: 36 ^b s^–1

## FC(F)(F)c1cc(NC(=S)NCCN(CCNC(=S)Nc2cc(C(F)(F)F)cc(C(F)(F)F)c2)CCNC(=S)Nc2cc(C(F)(F)F)cc(C(F)(F)F)c2)cc(C(F)(F)F)c1 [Compound 19]
[1]
  K a to Cl^– in CHCl3: 1.5 × 10^9 ^b M^–1
[2]
  Specific initial rate [I]: 590 ^b s^–1

## COCCOCCOC(=O)[C@]12CC[C@@H](NC(=O)Nc3cc(C(F)(F)F)cc(C(F)(F)F)c3)C[C@@H]1C[C@@H](NC(=O)Nc1cc(C(F)(F)F)cc(C(F)(F)F)c1)CC2 [Compound 10]
[1]
  K a to Cl^– in CHCl3: 2.5 × 10^8 M^–1
[2]
  Specific initial rate [I]: 19 s^–1

## COCCOCCOC(=O)[C@]12CC[C@@H](NC(=O)Nc3ccc(C(F)(F)F)cc3)C[C@@H]1C[C@@H](NC(=O)Nc1ccc(C(F)(F)F)cc1)CC2 [Compound 9]
[1]
  K a to Cl^– in CHCl3: 1.4 × 10^8 M^–1
[2]
  Specific initial rate [I]: 9 s^–1

## CCOC(=O)[C@]12CC[C@@H](NC(=S)Nc3ccc([N+](=O)[O-])cc3)C[C@@H]1C[C@@H](NC(=S)Nc1ccc([N+](=O)[O-])cc1)CC2 [Compound 12]
[2]
  Specific initial rate [I]: 310 s^–1

## CCCCCCCCOC(=O)[C@]12CC[C@@H](NC(=S)Nc3ccc([N+](=O)[O-])cc3)C[C@@H]1C[C@@H](NC(=S)Nc1ccc([N+](=O)[O-])cc1)CC2 [Compound 13]
[1]
  K a to Cl^– in CHCl3: 1.5 × 10^9 M^–1
[2]
  Specific initial rate [I]: 370 s^–1
